Source: paper PMC9853328, “Potent Platinum(IV) Prodrugs That Incorporate a Biotin Moiety to Selectively Target Cancer Cells” (Pharmaceutics, 2022)
Values joined by “and” are separate entries in the source; they are usually repeats but may differ in a detail not shown here. Equal values may be shown once.

Key:
HT29 colon cancer cells = assay: MTT in vitro cytotoxicity assay, HT29; assay type: cell-based
Protocol: (§1) The in vitro cytotoxicity assays were undertaken at Calvary Mater Hospital, Waratah, NSW, Australia, following a method previously published in the literature. A stock solution for each compound was prepared in DMSO (30 mM) and stored at −20 °C. The cell lines used in the study include HT29 colon, U87 glioblastoma, MCF-7 breast, A2780 ovarian, H460 lung, A431 skin, Du145 prostate, BE2-C neuroblastoma, SJ-G2 glioblastoma, MIA pancreas, and cisplatin-resistant ADDP ovarian (subclone of A2780) cancer cells, as well as the non-cancerous-derived MCF10A breast cell line. The cancer cell lines were cultured in a humidified atmosphere 5% CO2 at 37 °C and maintained in Dulbecco’s modified Eagle’s medium (Trace Biosciences, Sydney, Australia), supplemented with 10% foetal bovine serum, sodium bicarbonate (10 mM), penicillin (100 IU/mL), streptomycin (100 µg/mL), and glutamine (4 mM). The non-cancerous MCF10A cell line was maintained in DMEM:F12 (1:1) cell culture media, with 5% heat inactivated horse serum, supplemented with penicillin (50 IU/mL), streptomycin (50 µg/mL), glutamine (2 mM), HEPES (20 mM), epidermal growth factor (20 ng/mL), hydrocortisone (500 ng/mL), cholera toxin (100 ng/mL), and insulin (10 µg/mL). Cells were plated in duplicate in medium (100 µL) at a density of 2500–4000 cells per well in 96-well plates. On day 0, (24 h after plating) when the cells were in logarithmic growth, medium (100 μL) with or without the test agent was added to each well. The growth inhibitory effects were evaluated after 72 h drug exposure, using the MTT (3-(4,5-dimethylthiazol-2-yl)-2,5-diphenyltetrazolium bromide) assay, with the absorbance read at 540 nm. An eight-point dose–response curve was produced, which was used to determine the concentration at which growth was inhibited by 50% (GI50). This calculation was based on the difference between the optical density values on day 0 and those at the end of drug exposure. […] Experiments were conducted on three separate occasions and GI50 values were reported as the mean and standard error of the mean.

U87 glioblastoma cells = assay: MTT in vitro cytotoxicity assay, U87; assay type: cell-based; details: 72 h drug exposure, n = 3, read-out: GI50 ± SEM, U87
Protocol: as §1

[1] = test system: MCF-7 breast cancer cells; assay: MTT in vitro cytotoxicity assay, MCF-7; assay type: cell-based
[2] = test system: A2780 ovarian cancer cells; assay: MTT in vitro cytotoxicity assay, A2780; assay type: cell-based; details: 72 h drug exposure, n = 3, read-out: GI50 ± SEM, A2780
Protocol: as §1

H460 lung cancer cells = assay: MTT in vitro cytotoxicity assay, H460; assay type: cell-based; details: 72 h drug exposure, n = 3, read-out: GI50 ± SEM, H460
Protocol: as §1

A431 skin cancer cells = assay: MTT in vitro cytotoxicity assay, A431; assay type: cell-based; details: 72 h drug exposure, n = 3, read-out: GI50 ± SEM, A431
Protocol: as §1

[3] = test system: Du145 prostate cancer cells; assay: MTT in vitro cytotoxicity assay, Du145; assay type: cell-based
Protocol: as §1

[4] = test system: BE2-C neuroblastoma cells; assay: MTT in vitro cytotoxicity assay, BE2-C; assay type: cell-based; details: 72 h drug exposure, n = 3, read-out: GI50 ± SEM, BE2-C
Protocol: as §1

SJ-G2 glioblastoma cells = assay: MTT in vitro cytotoxicity assay, SJ-G2; assay type: cell-based; details: 72 h drug exposure, n = 3, read-out: GI50 ± SEM, SJ-G2
Protocol: as §1

[5] = test system: MIA pancreas cancer cells; assay: MTT in vitro cytotoxicity assay, MIA; assay type: cell-based; details: 72 h drug exposure, n = 3, read-out: GI50 ± SEM, MIA
Protocol: as §1

[6] = test system: non-cancerous MCF10A breast cell line; assay: MTT in vitro cytotoxicity assay, MCF10A; assay type: cell-based; details: 72 h drug exposure, n = 3, read-out: GI50 ± SEM, MCF10A
Protocol: as §1

[7] = test system: cisplatin-resistant ADDP ovarian (subclone of A2780) cancer cells; assay: MTT in vitro cytotoxicity assay, ADDP; assay type: cell-based; details: 72 h drug exposure, n = 3, read-out: GI50 ± SEM, ADDP
Protocol: as §1

[8] = test system: ADDP (subclone of A2780) versus A2780 ovarian cancer cell lines; assay: Resistance factor, GI50 in ADDP/GI50 in A2780; assay type: cell-based
[9] = test system: panel of cancer cell lines; assay: MTT cytotoxicity averaged across the panel of cancer cell lines; assay type: cell-based
[10] = Lipophilicity by RP-HPLC (logkw); assay type: physicochemical; details: capacity factor in 100% water
Protocol: HPLC experiments were carried out using an Agilent Technologies (Melbourne, Australia) 1260 Infinity instrument, equipped with a Phenomenex (Sydney, Australia) Onyx^TM Monolithic C18 reverse phase column (100 × 4.6 mm, 130 Å). The mobile phase was made up of 0.06% TFA in water (solvent A) and 0.06% TFA in an acetonitrile:water (9:1) mixture (solvent B). Samples were eluted over a gradient of 0–100% (% B) for 15 min, at a flow rate of 1 mL/min, with a sample injection volume of 10 µL. Eluting peaks were detected using a PDA at 254 nm.
For lipophilicity experiments, RP-HPLC was utilised to determine the logkw of each compound, similarly to what has been previously published for similar complexes. Samples were eluted at various isocratic percentages, ranging from 18–30% solvent B. To determine the dead volume of the column, potassium iodide was used as an external dead volume marker. The retention time of each sample in each isocratic run ( tr ) and the dead volume time ( t0 ) were both substituted in Equation (1) to calculate the capacity factor ( k ). (1) k=tr−t0/t0
Following this, logk was plotted against the percentage of ACN. For each complex, a minimum of four concentrations of ACN were used. This produced a linear graph with the equation in the form:(2) logk=Sφ+logkw where S is the slope, φ is the percentage of ACN, and logkw is the y-intercept, which represents the capacity factor of the compound in 100% water.
It is important to explore the lipophilicity of a drug, as it is widely believed that increased lipophilicity results in greater cellular accumulation. To understand the lipophilicity of 1–4, RP-HPLC was utilised to determine the logkw of each complex. To calculate this, each complex was eluted at different isocratic percentages, whereby the retention time was used in Equation (1) to calculate the capacity factor (k). The percentage of the organic solvent was then plotted against log k for each isocratic percentage, producing a linear equation that allowed for logkw to be deduced using Equation (2) (Figure S38). The logkw value represents the capacity factor of the compound in 100% water and can be used to compare a series of compounds. Since 1–4 comprise the same axially bound ligand, biotin, the lipophilicity was influenced by the groups on the PL. The logkw of each complex is presented in Table 1, with their corresponding PL. The increasing lipophilicity of the complexes followed the order: 1 < 4 < 2 < 3.

[11] = test system: MCF-7 (breast cancer) cells; assay: Cellular platinum uptake by ICP-MS, MCF-7; assay type: cell-based; details: at both 1.0 and 0.1 µM, 4 h
Protocol: Cellular uptake studies were carried out in MCF-7 (breast cancer) and MCF10A (healthy breast) cell lines. Reported in Table S2 are the numbers of cells per well that were seeded onto 12-well plates for each replicate and cell line. After incubating overnight at 37 °C, the cell culture medium was replaced with fresh media containing the test compounds at concentrations of 1.0 and 0.1 µM. After incubating for 4 h, the medium was removed, the cells were washed with PBS twice, and then incubated with trypsin solution until the cells dissociated from the plate. The harvested cells were then placed into an Eppendorf tube and PBS was added to a volume of 1 mL. Cell numbers were determined using trypan blue staining. Cell pellets were obtained after centrifugation and the cells were dispersed in 50 µL of MilliQ™ water and stored immediately at −20 °C until platinum analysis was conducted. These experiments were repeated in triplicate on three separate occasions.
Sixty-nine percent HNO3 (50 µL) was added to each sample and digested at 80 °C for 1.5 h, before being taken up to 1 mL with H2O. The platinum analysis was conducted using a PerkinElmer (Melbourne, Australia) NexION™ 300X inductively coupled plasma mass spectrometer (ICP-MS). A four-point calibration curve was produced by serial dilution of a certified platinum reference standard. The calibration was linear over the working range (R^2 > 0.9999) and the most abundant platinum isotope (m/z = 195) was monitored. The average values for three independent experiments were reported with standard deviations.

With `Cc1cc2ccc[n+]3c2c2c1ccc[n+]2[Pt-2]31([OH])([O]C(=O)CCCC[C@@H]2SC[C@@H]3NC(=O)N[C@@H]32)[NH2+][C@H]2CCCC[C@@H]2[NH2+]1.O=[N+]([O-])[O-].O=[N+]([O-])[O-]` [Complex 4, [Pt(5-methyl-1,10-phenanthroline)(1S,2S-diaminocyclohexane)(biotin)(hydroxido)](NO3)2] the GI50 (HT29 colon cancer cells; MTT, 72 h drug exposure, n = 3, read-out: GI50 ± SEM, HT29) was 0.028 ± 0.009 µM, the “number-fold potency against cisplatin, HT29 colon” value (HT29 colon cancer cells; ratio of GI50 values, 72 h) was 404 fold and the GI50 (U87 glioblastoma cells) was 0.11 ± 0.03 µM. The GI50 ([1]; MTT, 72 h drug exposure, n = 3, read-out: GI50 ± SEM, MCF-7) was 0.033 ± 0.004 µM, the “fold more active than its platinum(II) precursor in MCF-7” value ([1]; ratio of GI50 values) was 6 fold and the GI50 [2] was 0.034 ± 0.005 µM. It also gave a GI50 (H460 lung cancer cells) of 0.032 ± 0.01 µM, a GI50 (A431 skin cancer cells) of 0.11 ± 0.02 µM and a GI50 ([3]; MTT, 72 h drug exposure, n = 3, read-out: GI50 ± SEM, Du145) of 0.009 ± 0.004 µM. The “number-fold potency against cisplatin, Du145 prostate” value ([3]; ratio of GI50 values, 72 h) was 133 fold, the GI50 [4] was 0.1 ± 0.02 µM and the GI50 (SJ-G2 glioblastoma cells) was 0.1 ± 0.03 µM. The GI50 [5] was 0.02 ± 0.004 µM, the GI50 [6] was 0.031 ± 0.009 µM and the GI50 [7] was 0.029 ± 0.005 µM. For the same compound, the “Resistance factor (RF)” value [8] was 0.853 and 0.85, the “enhanced activity compared to platinum(II) precursor across the cancer cell lines” value ([9]; across all cancer cell lines) was ~ 2.3 fold and the GI50 ([9]; calculated from the panel of cancer cell lines tested (Table S4)) was 0.055 µM. The logkw [10] was 0.74 and the “fold lower uptake in MCF-7 than its platinum(II) precursor” value [11] was ~ 2 fold.
